In patent US6911207B1, “Cytotoxic T-cell epitopes of the papillomavirus L1-protein and use thereof in diagnostics and therapy” (MediGene Aktiengesellschaft, priority 1999, dated 2005):

Tests used:
[1] = system: RMA-S cells; type: cell-based, mouse
[2] = system: MVA-L1Δc-infected B6 cells; type: cell-based, mouse

Substance	specific lysis of peptide-preincubated RMA-S target cells by spleen cells of L1-immunized mouse 1 [1]	specific lysis of MVA-F6-infected (control virus) B6 target cells by spleen cells of the immunized mouse [2]	specific lysis of MVA-L1Δc-infected B6 target cells by spleen cells of the immunized mouse [2]
ASNENMETM (Influenza Virus Type A) [AM control peptide]	did not cause any distinct lysis	–	–
L1 VLPs: HPV16 L1 virus-like particles (Muller M. et al. 1997)	–	not the MVA-F6-infected target cells	lysed the MVA-L1Δc-infected target cells
